This is an account of results in patent US11814367B2, “Inhibitors of glycogen synthase 1 (GYS1) and methods of use thereof” (Maze Therapeutics, Inc., priority 2021, dated 2023).

The structures appear in SMILES notation.

Test [1] deals with hGYS2 enzyme (recombinant hGYS2/GN1 protein) (Homo sapiens (Human), UniProt P54840). Put plainly: GYS2 coupled enzyme assay (PK/LDH). Type of test: biochemical. Conditions: geometric mean of at least 2 assay runs on separate days, read-out: Avg_IC50. The method in brief:
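Recombinant hGYS2/GN1 (200 nM) with 2 mM UDP-glucose, 0.2% rabbit liver glycogen, 2 mM glucose-6-phosphate; UDP coupled via PK/LDH (2 mM PEP, 0.6 mM NADH). Buffer 50 mM Tris pH 7.5, 2 mM MgCl2, 100 mM KCl, 2.5% DMSO. A340 slope over 10 min; IC50 from Hill fit of duplicates.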

Test [2] deals with hGYS1 enzyme (recombinant hGYS1/GN1 protein) (Homo sapiens (Human), UniProt P13807). Put plainly: GYS1 coupled enzyme assay (PK/LDH). Type of test: biochemical. Conditions: hGYS1/GN1 50 nM, UDP-Glucose 0.8 mM, G6P 1 mM; geometric mean of at least 2 runs.
hGYS1 enzyme (recombinant hGYS1/GN1 protein), sequence (P13807 whole entry): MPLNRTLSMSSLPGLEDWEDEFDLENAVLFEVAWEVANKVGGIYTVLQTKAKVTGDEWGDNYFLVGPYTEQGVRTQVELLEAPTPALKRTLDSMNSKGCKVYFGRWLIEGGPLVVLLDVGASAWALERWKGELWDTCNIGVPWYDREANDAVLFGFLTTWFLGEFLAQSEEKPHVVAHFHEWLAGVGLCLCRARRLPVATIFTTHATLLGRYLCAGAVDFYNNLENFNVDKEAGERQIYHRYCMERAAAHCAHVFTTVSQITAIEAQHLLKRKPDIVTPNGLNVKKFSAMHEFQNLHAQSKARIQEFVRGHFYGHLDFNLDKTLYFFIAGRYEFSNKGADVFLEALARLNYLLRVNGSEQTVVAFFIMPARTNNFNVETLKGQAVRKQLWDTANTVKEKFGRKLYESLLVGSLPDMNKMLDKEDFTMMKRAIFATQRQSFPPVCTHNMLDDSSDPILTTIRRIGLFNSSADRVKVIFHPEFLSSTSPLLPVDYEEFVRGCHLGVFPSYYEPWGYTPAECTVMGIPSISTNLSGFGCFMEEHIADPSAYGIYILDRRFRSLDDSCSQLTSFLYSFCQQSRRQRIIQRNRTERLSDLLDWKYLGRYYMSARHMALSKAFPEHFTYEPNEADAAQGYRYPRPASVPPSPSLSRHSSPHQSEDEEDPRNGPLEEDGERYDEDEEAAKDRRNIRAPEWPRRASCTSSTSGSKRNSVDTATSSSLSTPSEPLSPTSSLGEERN
hGYS1 enzyme (recombinant hGYS1/GN1 protein), sequence (P46976 whole entry partner): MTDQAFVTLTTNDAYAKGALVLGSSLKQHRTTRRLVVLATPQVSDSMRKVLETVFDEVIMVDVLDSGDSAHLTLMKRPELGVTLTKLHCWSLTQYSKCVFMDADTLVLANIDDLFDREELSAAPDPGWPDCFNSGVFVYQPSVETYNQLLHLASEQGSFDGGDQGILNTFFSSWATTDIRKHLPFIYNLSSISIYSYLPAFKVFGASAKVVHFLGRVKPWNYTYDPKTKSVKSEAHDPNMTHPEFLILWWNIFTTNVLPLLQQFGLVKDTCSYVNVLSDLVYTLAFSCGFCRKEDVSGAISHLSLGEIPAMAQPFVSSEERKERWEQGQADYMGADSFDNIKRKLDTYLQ
The subject of test [3] is hGYS1 enzyme / glycogen synthesis in HeLa cells. Put plainly: GYS1 cell based assay (glycogen synthesis, Glucose-glo). Set-up: species or system human. Conditions: 24 h incubation, 20 mM glucose, geometric mean of at least 2 runs. The gist of the method:
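HeLa cells starved 24 h in medium containing only 1× Glutamax were plated onto compound in medium with 20 mM glucose (1% DMSO final) for 24 h, 37 °C, 5% CO2. Acid lysates were Tris-quenched, glucoamylase-digested (pH 5.3, 1 h, 37 °C) and read by Glucose-glo luminescence. IC50 came from Hill fits, as geometric mean of ≥2 runs.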

hGYS2 enzyme (recombinant hGYS2/GN1 protein), sequence (P54840 whole entry): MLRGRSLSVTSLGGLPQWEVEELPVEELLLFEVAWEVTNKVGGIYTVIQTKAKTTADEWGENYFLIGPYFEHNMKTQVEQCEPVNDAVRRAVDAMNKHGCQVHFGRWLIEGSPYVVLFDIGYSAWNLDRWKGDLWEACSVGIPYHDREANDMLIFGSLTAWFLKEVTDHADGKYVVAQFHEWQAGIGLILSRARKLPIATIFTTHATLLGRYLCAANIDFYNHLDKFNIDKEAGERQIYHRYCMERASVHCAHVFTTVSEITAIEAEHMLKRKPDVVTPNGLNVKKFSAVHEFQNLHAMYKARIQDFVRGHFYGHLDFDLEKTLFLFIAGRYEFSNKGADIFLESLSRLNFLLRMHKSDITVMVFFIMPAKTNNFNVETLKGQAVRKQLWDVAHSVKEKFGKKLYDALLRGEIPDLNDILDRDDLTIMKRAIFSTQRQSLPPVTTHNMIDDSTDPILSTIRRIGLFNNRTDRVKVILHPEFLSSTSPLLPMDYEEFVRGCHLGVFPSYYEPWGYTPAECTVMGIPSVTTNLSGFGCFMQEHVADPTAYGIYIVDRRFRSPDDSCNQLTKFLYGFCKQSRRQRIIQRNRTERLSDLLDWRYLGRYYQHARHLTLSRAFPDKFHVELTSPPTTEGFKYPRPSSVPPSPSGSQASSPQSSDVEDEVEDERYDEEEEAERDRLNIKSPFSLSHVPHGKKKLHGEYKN
hGYS2 enzyme (recombinant hGYS2/GN1 protein), sequence (P46976 whole entry partner): as the sequence (P46976 whole entry partner) above

In the case of `COCCN1CCN(C(=O)NCC(=O)N2C[C@H](F)C[C@H]2C(=O)N[C@@H](c2ccccc2)c2ccc(C3CC3)c(F)c2)CC1` [Compound 488, N-{2-[(2S,4R)-2-{[(S)-(4-cyclopropyl-3-fluorophenyl)(phenyl)methyl]carbamoyl}-4-fluoropyrrolidin-1-yl]-2-oxoethyl}-4-(2-methoxyethyl) piperazine-1-carboxamide], the IC50 in test [1] is over 100000 nM; in test [2], 31 nM; in test [3] (Homo sapiens, HeLa, 24 h), 880 nM.

Consider `Cc1ccc2c(CC(=O)N3C[C@H](F)C[C@H]3C(=O)N[C@@H](c3ccccc3)c3ccc(C(C)C)cn3)cccc2n1` [Compound 257, (2S,4R)-4-fluoro-1-[2-(2-methylquinolin-5-yl)acetyl]-N-[(S)-phenyl[5-(propan-2-yl)pyridin-2-yl]methyl]pyrrolidine-2-carboxamide], for which the IC50 was over 100000 nM in test [1]; 7 nM in test [2]; 240 nM in test [3] (Homo sapiens, HeLa, 24 h).

Regarding `CN(C)C(=O)NCC(=O)N1C[C@H](F)C[C@H]1C(=O)N[C@@H](c1ccccc1)c1ccc(C2CC2)c(F)n1` [Compound 300, (2S,4R)-N-[(S)-(5-cyclopropyl-6-fluoropyridin-2-yl)(phenyl)methyl]-1-{2-[(dimethylcarbamoyl)amino]acetyl}-4-fluoropyrrolidine-2-carboxamide], the IC50 in test [1] is over 100000 nM; in test [2] it was 28 nM; in test [3] (Homo sapiens, HeLa, 24 h), 570 nM.

For `O=C(N[C@@H](c1ccccc1)c1ccc(C2CC(F)(F)C2)c(F)n1)[C@@H]1C[C@@H](F)CN1C(=O)Cc1ncco1` [Compound 505, (2S,4R)-N-[(S)-[5-(3,3-difluorocyclobutyl)-6-fluoropyridin-2-yl](phenyl)methyl]-4-fluoro-1-[2-(1,3-oxazol-2-yl)acetyl]pyrrolidine-2-carboxamide], the IC50 in test [1] is over 100000 nM; in test [2], 20 nM; in test [3] (Homo sapiens, HeLa, 24 h), 350 nM.

Regarding `Cc1n[nH]c(C)c1CC(=O)N1C[C@H](F)C[C@H]1C(=O)N[C@@H](c1ccccc1)c1ccc(C(C)C)cn1` [Compound 246, (2S,4R)-1-[2-(3,5-dimethyl-1H-pyrazol-4-yl)acetyl]-4-fluoro-N-[(S)-phenyl[5-(propan-2-yl)pyridin-2-yl]methyl]pyrrolidine-2-carboxamide], the IC50 is over 100000 nM in test [1]; 33 nM in test [2]; 620 nM in test [3] (Homo sapiens, HeLa, 24 h).

As to `Cc1cnc(CC(=O)N2C[C@H](F)C[C@H]2C(=O)N[C@@H](c2ccccc2)c2ccc(C3CC(F)(F)C3)cn2)o1` [Compound 536, (2S,4R)-N-[(S)-[5-(3,3-difluorocyclobutyl)pyridin-2-yl](phenyl)methyl]-4-fluoro-1-[2-(5-methyl-1,3-oxazol-2-yl)acetyl]pyrrolidine-2-carboxamide], the IC50 is over 100000 nM in test [1]; 24 nM in test [2]; 350 nM in test [3] (Homo sapiens, HeLa, 24 h).

Regarding `O=C(N[C@@H](c1ccccc1)c1ccc(C2CC2)c(F)n1)[C@@H]1C[C@@H](F)CN1C(=O)Cc1[nH]nnc1C(F)(F)F` [Compound 307, (2S,4R)-N-[(S)-(5-cyclopropyl-6-fluoropyridin-2-yl)(phenyl)methyl]-4-fluoro-1-{2-[4-(trifluoromethyl)-1H-1,2,3-triazol-5-yl]acetyl}pyrrolidine-2-carboxamide], the IC50 in test [1] is over 100000 nM; in test [2], 10 nM; in test [3] (Homo sapiens, HeLa, 24 h), 500 nM.

As for `CC(C)c1ccc([C@@H](NC(=O)[C@@H]2C[C@@H](F)CN2C(=O)C(O)c2cnn[nH]2)c2ccccc2)cc1F` (single isomer, unassigned) [Compound 774, (2S,4R)-4-fluoro-N-[(S)-[3-fluoro-4-(propan-2-yl)phenyl](phenyl)methyl]-1-[(2S) or (2R)-2-hydroxy-2-(1H-1,2,3-triazol-5-yl)acetyl]pyrrolidine-2-carboxamide], the figures for the IC50 in test [1], in test [2] and in test [3] were over 100000 nM, 22 nM and 190 nM, respectively.

As for `COCCN1CCN(C(=O)OCC(=O)N2C[C@H](F)C[C@H]2C(=O)N[C@@H](c2ccccc2)c2ccc(C3(C)CC3)c(F)c2)CC1` [Compound 579, 2-[(2S,4R)-4-fluoro-2-{[(S)-[3-fluoro-4-(1-methylcyclopropyl)phenyl](phenyl)methyl]carbamoyl}pyrrolidin-1-yl]-2-oxoethyl 4-(2-methoxyethyl) piperazine-1-carboxylate], the IC50 in test [1] is over 100000 nM; in test [2], 59 nM; in test [3] (Homo sapiens, HeLa, 24 h), 1830 nM.

In the case of `Cc1ccc2c(CC(=O)N3C[C@H](F)C[C@H]3C(=O)N[C@@H](c3ccccc3)c3ccc(C4CC4)c(F)c3)cccc2n1` [Compound 477, (2S,4R)-N-[(S)-(4-cyclopropyl-3-fluorophenyl)(phenyl)methyl]-4-fluoro-1-[2-(2-methylquinolin-5-yl)acetyl]pyrrolidine-2-carboxamide], the IC50 was over 100000 nM in test [1]; 20 nM in test [2]; 630 nM in test [3] (Homo sapiens, HeLa, 24 h).

With `Cc1nn[nH]c1CC(=O)N1C[C@H](F)C[C@H]1C(=O)N[C@@H](c1ccccc1)c1ccc(C(C)C)c(F)c1` [Compound 367, (2S,4R)-4-fluoro-N-[(S)-[3-fluoro-4-(propan-2-yl)phenyl](phenyl)methyl]-1-[2-(4-methyl-1H-1,2,3-triazol-5-yl)acetyl]pyrrolidine-2-carboxamide], the IC50 in test [1] is over 100000 nM; in test [2] it was 16 nM; in test [3] (Homo sapiens, HeLa, 24 h), 470 nM.

In the case of `O=C(N[C@@H](c1ccccc1)c1ccc(C2CC2)c(F)c1)[C@@H]1C[C@@H](F)CN1C(=O)CNC(=O)N1CC(C(F)(F)F)C1` [Compound 496, (2S,4R)-N-[(S)-(4-cyclopropyl-3-fluorophenyl)(phenyl)methyl]-4-fluoro-1-(2-{[3-(trifluoromethyl)azetidine-1-carbonyl]amino}acetyl) pyrrolidine-2-carboxamide], the IC50 in test [1] is over 100000 nM; in test [2] it was 86 nM; in test [3] (Homo sapiens, HeLa, 24 h), 1820 nM.

Regarding `C[C@H](NC(=O)N(C)C)C(=O)N1C[C@H](F)C[C@H]1C(=O)N[C@@H](c1ccccc1)c1ccc(C2CC2)c(F)n1` [Compound 310, (2S,4R)-N-[(S)-(5-cyclopropyl-6-fluoropyridin-2-yl)(phenyl)methyl]-1-[(2S)-2-[(dimethylcarbamoyl)amino]propanoyl]-4-fluoropyrrolidine-2-carboxamide], the IC50 in test [1] is over 100000 nM; in test [2] it was 75 nM; in test [3] (Homo sapiens, HeLa, 24 h), 1290 nM.

For `O=C(N[C@@H](c1ccccc1)c1ccc(C2CC(F)(F)C2)c(F)c1)[C@@H]1C[C@@H](F)CN1C(=O)Cc1[nH]nnc1C(F)(F)F` [Compound 553, (2S,4R)-N-[(S)-[4-(3,3-difluorocyclobutyl)-3-fluorophenyl](phenyl)methyl]-4-fluoro-1-{2-[4-(trifluoromethyl)-1H-1,2,3-triazol-5-yl]acetyl}pyrrolidine-2-carboxamide], the IC50 in test [1] was over 100000 nM; in test [2], 8 nM; in test [3] (Homo sapiens, HeLa, 24 h) it was 400 nM.

`Cc1nn(C)c(C)c1CC(=O)N1C[C@H](F)C[C@H]1C(=O)N[C@@H](c1ccccc1)c1ccc(C(C)C)cc1` [Compound 136, (2S,4R)-4-fluoro-N-[(S)-phenyl[4-(propan-2-yl)phenyl]methyl]-1-[2-(1,3,5-trimethyl-1H-pyrazol-4-yl)acetyl]pyrrolidine-2-carboxamide]: the IC50 in test [1] was over 100000 nM; in test [2], 9 nM; in test [3] (Homo sapiens, HeLa, 24 h) it was 170 nM.

Take `CC(=O)N1C[C@H](C(=O)N2C[C@H](F)C[C@H]2C(=O)N[C@@H](c2ccccc2)c2ccc(C(C)C)cc2)[C@H]2OCC[C@H]21` [Compound 166, (2S,4R)-1-[(3aR,6S,6aR)-4-acetyl-hexahydro-2H-furo[3,2-b]pyrrole-6-carbonyl]-4-fluoro-N-[(S)-phenyl[4-(propan-2-yl)phenyl]methyl]pyrrolidine-2-carboxamide]: the IC50 in test [1] was over 100000 nM; in test [2], 56 nM; in test [3] (Homo sapiens, HeLa, 24 h) it was 780 nM.

Consider `CCN(CC)c1cnn(CC(=O)N2C[C@H](F)C[C@H]2C(=O)N[C@@H](c2ccccc2)c2ccc(C(C)C)cn2)n1` [Compound 278, (2S,4R)-1-{2-[4-(diethylamino)-2H-1,2,3-triazol-2-yl]acety}-4-fluoro-N-N-[(S)-phenyl[5-(propan-2-yl)pyridin-2-yl]methyl]pyrrolidine-2-carboxamide], for which the IC50 is over 100000 nM in test [1]; 11 nM in test [2]; 230 nM in test [3] (Homo sapiens, HeLa, 24 h).

With `Cc1cn(CC(=O)N2C[C@H](F)C[C@H]2C(=O)N[C@@H](c2ccccc2)c2ccc(C3CC(F)(F)C3)c(F)c2)c(=O)[nH]c1=O` [Compound 551, (2S,4R)-N-[(S)-[4-(3,3-difluorocyclobutyl)-3-fluorophenyl](phenyl)methyl]-4-fluoro-1-[2-(5-methyl-2,4-dioxo-1,2,3,4-tetrahydropyrimidin-1-yl)acetyl]pyrrolidine-2-carboxamide], the IC50 in test [1] is over 100000 nM; in test [2], 7 nM; in test [3] (Homo sapiens, HeLa, 24 h) it was 210 nM.

`CC1(c2ccc([C@@H](NC(=O)[C@@H]3C[C@@H](F)CN3C(=O)COC(=O)N3CCC3)c3ccccc3)cc2F)CC1` [Compound 560, 2-[(2S,4R)-4-fluoro-2-{[(S)-[3-fluoro-4-(1-methylcyclopropyl)phenyl](phenyl)methyl]carbamoyl}pyrrolidin-1-yl]-2-oxoethyl azetidine-1-carboxylate]: the IC50 in test [1] was over 100000 nM; in test [2], 144 nM; in test [3] (Homo sapiens, HeLa, 24 h), 1800 nM.
